The term IC50 denotes the point on the concentration scale where inhibition reaches its midpoint. For orientation: melting point means the temperature, or range, at which the solid turns liquid.

The results in this text go back to patent publication US8735414B2 (priority 2009, dated 2014).

Where only a bound is given, the exact number is not on record here.

Series [1] deals with bicistronic HCV replicon (replicon RNA, GenBank Accession No. AJ242654). The series can be described thus: HCV Replicon Assay. In kind it is cell-based. To be noted: Hepatitis C virus, 72 h, read-out: Replicon IC50. (In general: Replicon systems follow genome replication, usually without infectious particles.)

Take `C[C@H](NS(=O)(=O)c1ccc(-c2c(C#N)c3cc(F)c(C4CC4)cc3n2-c2ccc(F)cn2)nc1)C(F)(F)F` [compound 818, 6-[3-cyano-6-cyclopropyl-5-fluoro-1-(5-fluoropyridin-2-yl)-1H-indol-2-yl]-N-[(2S)-1,1,1-trifluoropropan-2-yl]pyridine-3-sulfonamide]: the melting point is 240 to 242 °C. Also, in series [1], the 50% inhibitory concentration (IC50) was under 500 nM.

Compound `C[C@H](NS(=O)(=O)c1ccc(-c2c(C#N)c3cc(F)c(C4CC4)cc3n2-c2ccccn2)nc1)C(F)(F)F` [compound 819, 6-[3-cyano-6-cyclopropyl-5-fluoro-1-(pyridin-2-yl)-1H-indol-2-yl]-N-[(2S)-1,1,1-trifluoropropan-2-yl]pyridine-3-sulfonamide] registered a melting point of 220 to 223 °C. Further, the IC50 in series [1] is under 500 nM.

Compound `C[C@H](NS(=O)(=O)c1ccc(-c2c(C#N)c3cc(F)c(C4CC4)cc3n2-c2ncccn2)nc1)C(F)(F)F` [compound 820, 6-[3-cyano-6-cyclopropyl-5-fluoro-1-(pyrimidin-2-yl)-1H-indol-2-yl]-N-[(2S)-1,1,1-trifluoropropan-2-yl]pyridine-3-sulfonamide] yielded a melting point of 236 to 240 °C. The half-maximal inhibitory concentration (IC50) in series [1] is under 500 nM.

The compound `CC[C@H](NS(=O)(=O)c1ccc(-c2c(C#N)c3cc(F)c(C)cc3n2C2CCCC2)nc1)C(F)(F)F` [compound 821, 6-(3-cyano-1-cyclopentyl-5-fluoro-6-methyl-1H-indol-2-yl)-N-[(2S)-1,1,1-trifluorobutan-2-yl]pyridine-3-sulfonamide] came in with a melting point of 201 to 207 °C. Further, in series [1], the concentration for half-maximal inhibition (IC50) is under 500 nM.

On to `Cc1cc(-c2c(C#N)c3cc(F)c(OC(F)F)cc3n2C2CCC2)ncc1S(=O)(=O)N[C@@H](C)C(F)(F)F` [compound 822, 6-[3-cyano-1-cyclobutyl-6-(difluoromethoxy)-5-fluoro-1H-indol-2-yl]-4-methyl-N-[(2S)-1,1,1-trifluoropropan-2-yl]pyridine-3-sulfonamide], for which the melting point fell in the range of 204 to 210 °C. Further, in series [1], the IC50 was under 500 nM.

On to `C[C@H](NS(=O)(=O)c1ccc(-c2c(C(N)=O)c3c(F)cc(OC(F)F)cc3n2C2CCC2)nc1)C(F)(F)F` [compound 825, 1-cyclobutyl-6-(difluoromethoxy)-4-fluoro-2-(5-{[(2S)-1,1,1-trifluoropropan-2-yl]sulfamoyl}pyridin-2-yl)-1H-indole-3-carboxamide], for which the melting point fell in the range of 254 to 256 °C. Also, the concentration for half-maximal inhibition (IC50) in series [1] was under 500 nM.

The compound `CC[C@H](NS(=O)(=O)c1ccc(-c2c(C#N)c3cc(F)c(C)cc3n2C2CCC2)nc1)C(F)(F)F` [compound 826, 6-(3-cyano-1-cyclobutyl-5-fluoro-6-methyl-1H-indol-2-yl)-N-[(2S)-1,1,1-trifluorobutan-2-yl]pyridine-3-sulfonamide] gave a melting point of 212 to 217 °C. For the same compound, in series [1], the IC50 was under 500 nM.

As to `Cc1cc(S(=O)(=O)N[C@@H](C)C(F)(F)F)cnc1-c1c(C#N)c2cc(F)c(OC(F)F)cc2n1C1CCC1` [compound 827, 6-[3-cyano-1-cyclobutyl-6-(difluoromethoxy)-5-fluoro-1H-indol-2-yl]-5-methyl-N-[(2S)-1,1,1-trifluoropropan-2-yl]pyridine-3-sulfonamide], the melting point lay within 150 to 155 °C. Besides, in series [1], the IC50 was under 500 nM.

In turn, `Cc1cc2c(cc1O)c(C(N)=O)c(-c1ccc(S(=O)(=O)NC(C)(C)C)cn1)n2C1CCC1` [compound 828, 2-[5-(tert-butylsulfamoyl)pyridin-2-yl]-1-cyclobutyl-5-hydroxy-6-methyl-1H-indole-3-carboxamide] came in with a melting point of 292 to 293 °C. In series [1], the IC50 was 2000 to 5000 nM.

In turn, `C[C@@H](NS(=O)(=O)c1ccc(-c2c(C(N)=O)c3cc(F)c(C4CC4)cc3n2C2CCCC2)nc1)C(F)(F)F` [compound 829, 1-cyclopentyl-6-cyclopropyl-5-fluoro-2-(5-{[(2R)-1,1,1-trifluoropropan-2-yl]sulfamoyl}pyridin-2-yl)-1H-indole-3-carboxamide] gave a melting point of 233 to 234 °C. In series [1], the IC50 is under 500 nM.

On to `CCc1cc2c(cc1F)c(C(N)=O)c(-c1ccc(S(=O)(=O)N[C@@H](C)C(F)(F)F)cn1)n2C1CCCC1` [compound 830, 1-cyclopentyl-6-ethyl-5-fluoro-2-(5-{[(2S)-1,1,1-trifluoropropan-2-yl]sulfamoyl}pyridin-2-yl)-1H-indole-3-carboxamide], for which the melting point fell in the range of 237 to 238 °C. Besides, in series [1], the IC50 is under 500 nM.

In the case of `CC(C)(NS(=O)(=O)c1ccc(-c2c(C#N)c3cc(F)c(C4CC4)cc3n2C2CCCC2)nc1)C(F)(F)F` [compound 831, 6-(3-cyano-1-cyclopentyl-6-cyclopropyl-5-fluoro-1H-indol-2-yl)-N-(1,1,1-trifluoro-2-methylpropan-2-yl)pyridine-3-sulfonamide], the melting point lay within 183 to 185 °C. Moreover, the IC50 in series [1] was under 500 nM.

In the case of `CC(C)(C)NS(=O)(=O)c1ccc(-c2c(C#N)c3cc(F)c(C4CC4)cc3n2C2CCCC2)nc1` [compound 832, N-tert-butyl-6-(3-cyano-1-cyclopentyl-6-cyclopropyl-5-fluoro-1H-indol-2-yl)pyridine-3-sulfonamide], the melting point lay within 186 to 188 °C. Also, in series [1], the half-maximal inhibitory concentration (IC50) was under 500 nM.

As for `Cc1cc2c(cc1O)c(C(N)=O)c(-c1ccc(S(=O)(=O)N[C@@H](C)C(F)(F)F)cn1)n2C1CCC1` [compound 833, 1-cyclobutyl-5-hydroxy-6-methyl-2-(5-{[(2S)-1,1,1-trifluoropropan-2-yl]sulfamoyl}pyridin-2-yl)-1H-indole-3-carboxamide], the melting point was 256 to 258 °C. Further, the half-inhibitory concentration (IC50) in series [1] was 500 to 2000 nM.

`COc1cc2c(C(N)=O)c(-c3ccc(S(=O)(=O)N[C@H](C)C(F)(F)F)cn3)n(C3CCCC3)c2cc1C` [compound 834, 1-cyclopentyl-5-methoxy-6-methyl-2-(5-{[(2R)-1,1,1-trifluoropropan-2-yl]sulfamoyl}pyridin-2-yl)-1H-indole-3-carboxamide] yielded a melting point of 273 to 275 °C. The IC50 in series [1] was 2000 to 5000 nM.

`Cc1cc2c(cc1F)c(C(=O)O)c(-c1ccc(S(=O)(=O)NC3(C(F)(F)F)CC3)cn1)n2C1CCCCC1` [compound 835, 1-cyclohexyl-5-fluoro-6-methyl-2-(5-{[1-(trifluoromethyl)cyclopropyl]sulfamoyl}pyridin-2-yl)-1H-indole-3-carboxylic acid] gave a melting point of 205 to 213 °C. In series [1], the concentration for half-maximal inhibition (IC50) is under 500 nM.

`Cc1cc2c(cc1F)c(C#N)c(-c1ccc(NS(=O)(=O)N[C@@H](C)C(F)(F)F)cn1)n2C1CCCC1` [compound 836, N-[6-(3-cyano-1-cyclopentyl-5-fluoro-6-methyl-1H-indol-2-yl)pyridin-3-yl]-N′-[(2S)-1,1,1-trifluoropropan-2-yl]sulfuric diamide] returned a melting point of 206 to 208 °C. Further, the concentration for half-maximal inhibition (IC50) in series [1] is 500 to 2000 nM.

The compound `Cc1cc2c(cc1F)c(C#N)c(-c1ncc(S(=O)(=O)N[C@@H](C)C(F)(F)F)cc1C)n2C1CCCC1` [compound 837, 6-(3-cyano-1-cyclopentyl-5-fluoro-6-methyl-1H-indol-2-yl)-5-methyl-N-[(2S)-1,1,1-trifluoropropan-2-yl]pyridine-3-sulfonamide] returned a melting point of 237 to 242 °C. Further, in series [1], the IC50 was under 500 nM.

The compound `CC(C)n1c(-c2ccc(S(=O)(=O)N[C@@H](C)C(F)(F)F)cn2)c(C(N)=O)c2c(F)cc(OC(F)F)cc21` [compound 839, 6-(difluoromethoxy)-4-fluoro-1-(propan-2-yl)-2-(5-{[(2S)-1,1,1-trifluoropropan-2-yl]sulfamoyl}pyridin-2-yl)-1H-indole-3-carboxamide] registered a melting point of 197 to 198 °C. In series [1], the IC50 was under 500 nM.

Compound `C[C@H](NS(=O)(=O)c1ccc(-c2c(C(N)=O)c3c(F)cc(OC(F)F)cc3n2CC2CC2)nc1)C(F)(F)F` [compound 840, 1-(cyclopropylmethyl)-6-(difluoromethoxy)-4-fluoro-2-(5-{[(2S)-1,1,1-trifluoropropan-2-yl]sulfamoyl}pyridin-2-yl)-1H-indole-3-carboxamide] gave a melting point of 211 to 212 °C. Moreover, the IC50 in series [1] was under 500 nM.

On to `Cc1cc2c(cc1O)c(C(N)=O)c(-c1ccc(S(=O)(=O)N[C@@H](C)C(F)(F)F)cn1)n2C1CCCC1` [compound 841, 1-cyclopentyl-5-hydroxy-6-methyl-2-(5-{[(2S)-1,1,1-trifluoropropan-2-yl]sulfamoyl}pyridin-2-yl)-1H-indole-3-carboxamide], for which the melting point is 272 to 274 °C. Besides, the IC50 in series [1] was under 500 nM.

`Cc1ccc2c(c1)c(C#N)c(-c1ccc(S(=O)(=O)N[C@@H](C)C(F)(F)F)cn1)n2-c1ncccn1` [compound 843, 6-[3-cyano-5-methyl-1-(pyrimidin-2-yl)-1H-indol-2-yl]-N-[(2S)-1,1,1-trifluoropropan-2-yl]pyridine-3-sulfonamide] gave a melting point of 174 to 179 °C. In addition, the half-maximal inhibitory concentration (IC50) in series [1] was under 500 nM.

Consider `Cc1ccc2c(c1)c(C#N)c(-c1ccc(S(=O)(=O)N[C@@H](C)C(F)(F)F)cn1)n2-c1ncccc1F` [compound 844, 6-[3-cyano-1-(3-fluoropyridin-2-yl)-5-methyl-1H-indol-2-yl]-N-[(2S)-1,1,1-trifluoropropan-2-yl]pyridine-3-sulfonamide], for which the melting point fell in the range of 216 to 220 °C. Besides, in series [1], the IC50 was under 500 nM.

Regarding `Cc1ccc2c(c1)c(C#N)c(-c1ccc(S(=O)(=O)N[C@@H](C)C(F)(F)F)cn1)n2-c1cnccn1` [compound 845, 6-[3-cyano-5-methyl-1-(pyrazin-2-yl)-1H-indol-2-yl]-N-[(2S)-1,1,1-trifluoropropan-2-yl]pyridine-3-sulfonamide], the melting point was in the range of 236 to 241 °C. Also, in series [1], the IC50 was under 500 nM.

As for `Cc1cc(-c2c(C#N)c3cc(F)ccc3n2-c2ccccn2)ncc1S(=O)(=O)N[C@@H](C)C(F)(F)F` [compound 847, 6-[3-cyano-5-fluoro-1-(pyridin-2-yl)-1H-indol-2-yl]-4-methyl-N-[(2S)-1,1,1-trifluoropropan-2-yl]pyridine-3-sulfonamide], the melting point is 180 to 186 °C. Also, the 50% inhibitory concentration (IC50) in series [1] is under 500 nM.
